Consider one molecule from patent US20080176261A1, “Colorimetric Substrate and Methods for Detecting Poly(ADP-ribose) Polymerase Activity including PARP Enzymes PARP-1, VPARP, and Tankyrase-1” (THE BOARD OF TRUSTEES OF THE UNIVERSITY OF ILLINOIS, priority 2007, published 2008).

The target of one experiment is PARP-1 (Homo sapiens, UniProt P09874). The experiment in a line: biochemical. The method, then: (§1) For these measurements, concentrations of DPQ ranging from 0.05 nM to 10 μM were added to a 96-well plate containing PARP assay buffer and ADP-ribose-pNP and the absorbance at 405 nm was measured in triplicate.
Chain of PARP-1 (P09874 whole entry): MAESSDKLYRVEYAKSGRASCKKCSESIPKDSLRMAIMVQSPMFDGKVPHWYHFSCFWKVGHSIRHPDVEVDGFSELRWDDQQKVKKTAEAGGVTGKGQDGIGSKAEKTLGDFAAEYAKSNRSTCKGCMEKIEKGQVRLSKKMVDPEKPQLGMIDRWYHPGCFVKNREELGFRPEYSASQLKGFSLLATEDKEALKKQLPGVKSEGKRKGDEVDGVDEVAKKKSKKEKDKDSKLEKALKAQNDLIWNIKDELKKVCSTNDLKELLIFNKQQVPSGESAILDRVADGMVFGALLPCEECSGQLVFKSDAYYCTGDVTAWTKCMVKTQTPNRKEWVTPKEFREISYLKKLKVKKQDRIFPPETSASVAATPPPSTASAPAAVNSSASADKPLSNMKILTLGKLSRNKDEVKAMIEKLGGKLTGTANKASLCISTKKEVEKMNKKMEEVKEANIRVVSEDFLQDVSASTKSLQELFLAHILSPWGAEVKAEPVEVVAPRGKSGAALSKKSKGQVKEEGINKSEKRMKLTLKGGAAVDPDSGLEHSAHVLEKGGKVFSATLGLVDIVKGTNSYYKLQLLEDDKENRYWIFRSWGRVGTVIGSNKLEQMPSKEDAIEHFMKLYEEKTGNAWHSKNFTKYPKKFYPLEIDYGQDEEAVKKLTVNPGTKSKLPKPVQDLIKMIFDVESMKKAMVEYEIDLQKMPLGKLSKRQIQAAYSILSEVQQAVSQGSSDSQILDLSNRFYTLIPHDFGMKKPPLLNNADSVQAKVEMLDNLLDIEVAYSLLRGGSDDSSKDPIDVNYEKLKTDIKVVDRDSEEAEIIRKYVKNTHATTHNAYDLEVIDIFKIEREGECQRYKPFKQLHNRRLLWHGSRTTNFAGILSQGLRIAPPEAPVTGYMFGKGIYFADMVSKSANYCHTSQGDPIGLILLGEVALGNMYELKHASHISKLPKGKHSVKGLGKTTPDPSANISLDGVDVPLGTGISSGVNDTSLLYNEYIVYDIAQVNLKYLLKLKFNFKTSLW
(§2) Determination of IC50 values for PARP inhibitors. To determine IC50 values of the PARP inhibitors, 22.5 μL of PARP assay buffer containing varying concentrations of DPQ and 20 μg/mL DNase activated DNA (for PARP-1 only) were added into the wells of a 384-well plate. A 22.5 μL volume of PARP at a concentration of 5 μg/mL PARP-1, 40 μg/mL VPARP and 40 μg/mL tankyrase-1 in PARP assay buffer was added. The reaction was initiated by the addition of 5 μL of a 2.5 mM solution of ADP-ribose-pNP in PARP assay buffer, bringing the final concentration to 2.5 μg/mL PARP-1 with 10 μg/mL DNA or 20 μg/mL VPARP or 20 μg/mL tankyrase-1, 250 μM ADP-ribose-pNP with varying concentrations of inhibitors in a total volume of 50 μL. The plate was then read every 2 minutes for 2 hours at 405 nm on a SpectraMax 384 plate reader (Molecular Devices). […]
(§3) Data analysis. Data from the plate reader was imported into Excel where appropriate subtractions were made and the data was plotted. Graphs were analyzed using Table Curve 2D. […]

The next experiment addresses T1, VPARP (Homo sapiens, UniProt Q9UKK3).
T1 construct: The plasmid with the catalytic domain of VPARP, pET28b-p193cat; made in house; host or cells: E. coli Rosetta
T1 sequence (Q9UKK3 369-573 limits assumed): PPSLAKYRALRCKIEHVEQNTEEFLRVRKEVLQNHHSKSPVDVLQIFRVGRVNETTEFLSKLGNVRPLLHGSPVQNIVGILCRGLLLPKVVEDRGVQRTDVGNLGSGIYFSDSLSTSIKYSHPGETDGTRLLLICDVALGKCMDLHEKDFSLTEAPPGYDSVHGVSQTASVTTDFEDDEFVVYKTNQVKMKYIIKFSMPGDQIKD
The experiment in a line: IC50 determination of PARP inhibitor with ADP-ribose-pNP substrate, VPARP. It counts as biochemical. The conditions noted are these: 250 μM ADP-ribose-pNP. On the procedure: as §1, §2, §3

The next experiment concerns the target T2, tankyrase-1 (Homo sapiens, UniProt O95271).
T2 construct: The SAM and PARP domain of tankyrase was subcloned into pGEX-5X-1; made in house; host or cells: E. coli Rosetta
T2 sequence (O95271 1030-1327): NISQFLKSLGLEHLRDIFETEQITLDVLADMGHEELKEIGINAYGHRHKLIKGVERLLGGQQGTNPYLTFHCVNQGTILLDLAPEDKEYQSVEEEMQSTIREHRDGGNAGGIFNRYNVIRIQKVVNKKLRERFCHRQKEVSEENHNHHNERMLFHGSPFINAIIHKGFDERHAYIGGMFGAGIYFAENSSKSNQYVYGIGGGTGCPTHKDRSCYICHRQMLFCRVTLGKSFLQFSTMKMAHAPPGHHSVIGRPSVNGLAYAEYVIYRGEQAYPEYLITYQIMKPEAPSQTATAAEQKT
As to the kind of experiment: IC50 determination of PARP inhibitor with ADP-ribose-pNP substrate, tankyrase-1. It counts as biochemical. The conditions noted are these: 250 μM ADP-ribose-pNP. On the procedure: as §1, §2, §3

In general, IC50 refers to the midpoint of a concentration-inhibition curve. Read a low IC50 as inhibition by little substance. Take `O=C1NCCc2c(OCCCCN3CCCCC3)cccc21` [DPQ, 3,4-Dihydro-5-[4-(1-piperidinyl)butoxyl]-1 (2H)-isoquinolinone]: the IC50 against PARP-1 was determined as 23 nM; at VPARP it was 281 nM; against tankyrase-1, 33 nM.
